The subject of assay [1] is periodontal ligament cell line (PDL‐hTERT). Put plainly: Whole proteome analysis and pathway analysis of treated PDL-hTERT cells. Type of assay: cell-based, human. Also on record: dose or concentration left out as unconfirmed. The settings on record: same concentrations ([…] and […] µM), 3 days, compared with Ciprofloxacin.
The test system of assay [2] is HEK‐293 and PDL‐hTERT cells. Briefly: MTT assay, relative metabolic activity after 3 days. The format is cell-based, human. To be noted: 3 days of treatment. As for the experimental part:
Methods and Experimental Procedures
(Alfa Aesar, Haverhill, USA, Cat# J66943 ) stocks were prepared in sterile -filtered 0.1 N HCl to a
maximum concentration of 50 mM. HCl was used as vehicle control, diluted in culture medium, and
Cell culture experiments were performed in HEK 293, A549 or PDL-hTERT cells1 cultured in DMEM high
glucose medium supplemented with 10% FCS and 2 mM glutamine ( all, Sigma-Aldrich, St. Louis, USA,
Cat# G7513) in 5% CO2 atmosphere at 37 °C in Heracell 150i incubators (Thermo Fisher Scientific,
Waltham, USA). The human periodontal ligament (PDL -hTERT) cell line was provided by Prof. Denitsa
Docheva. During standard cell passaging accutase (Sigma-Aldrich) or 2,5x trypsin/0.5% EDTA in PBS
(Capricorn Scientific, Ebsdorfergrund, Germany) was used for cell detachment. Cell dishes in various
sizes (10 cm, 15 cm) and flasks (T75, T175) were used for cultivation (Sarstedt, Nümbrecht, Germany,
purchased from Thermo Fisher Scientific, Waltham, USA, Cat# 130184, 130188.
HEK or PDL-hTERT cells (1,5 x 10^3 cells/well) were seeded into 96 -well plates and grown for 24 h. […]
removed by suction and the formed formazan crystals dissolved in 200 μL DMSO. The read-out was
performed with an Infinite M200 Pro microplate reader (Tecan, Männedorf, Switzerland) at 570 nm
and background was subtracted at 630 nm. The absorbance values were normalized to DMSO/0.1 N […]
Background: Tetrazolium dyes change colour on reduction, which living cells bring about.

The target of a further assay is T1, ADAL1 (Homo sapiens, UniProt Q6DHV7).
T1 construct: Full length ADAL1 gene synthesis; made in house; host or cells: E. coli BL21 (DE3)
T1 sequence (Q6DHV7 1-355): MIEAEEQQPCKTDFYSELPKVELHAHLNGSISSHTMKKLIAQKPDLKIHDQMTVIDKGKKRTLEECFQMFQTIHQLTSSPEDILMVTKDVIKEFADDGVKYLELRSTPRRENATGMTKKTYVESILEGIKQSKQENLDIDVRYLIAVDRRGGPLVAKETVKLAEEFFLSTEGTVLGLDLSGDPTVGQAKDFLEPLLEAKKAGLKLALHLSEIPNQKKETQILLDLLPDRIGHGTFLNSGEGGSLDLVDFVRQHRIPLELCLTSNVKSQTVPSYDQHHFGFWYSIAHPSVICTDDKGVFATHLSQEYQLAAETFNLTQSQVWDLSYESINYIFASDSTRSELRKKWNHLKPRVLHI
Briefly: ADAL1 in vitro activity assay (N6-methyl-AMP absorbance shift). Type of assay: biochemical. To be noted: tested up to 500 µM. As for the experimental part: Cytiva, Marlborough, USA, Cat# 6818-1304). Nickel-affinity chromatography purification was
performed with Äkta Pure system (GE Healthcare, Chicago, USA) using an HisTrap HP (5 mL, Cytiva,
Marlborough, USA, Cat# 17-5248) column equilibrated in buffer A. The filtered lysate was applied via
the sample pump and subsequently the column was washed for 15 column volumes (CV) with buffer
A, before gradient elution with buffer B (50 mM Tris pH 8.0, 300 mM NaCl, 5 mM β-mercaptoethanol,
0.1% (v/v) NP40, 10% (v/v) glycerol and 400 mM imidazole) from 0% to 100% buffer B over for 25 CV.
ADAL1 containing fraction s were identified via SDS-PAGE, pooled and dialyzed in buffer 1 (20 mM Tris
pH 8.0, 1 mM DTT, 10% (v/v) glycerol ) in a dialysis membrane ( Carl Roth, Karlsruhe, Germany, Cat#
E659.1) overnight at 4 °C. […]
methyl-AMP (Cayman Chemical, Ann Arbor, USA, Cat# 23382) to […] by ADAL1 was monitored by
the shift of the absorbance maxima of educt ( 265 nm) and product (250 nm). […]
substrate N6-methyl-AMP (1 µL of 20 mM stock in PBS). The absorbance at 270 nm was continuously
measured using a Infinite M200 Pro (Tecan, Männedorf, Switzerland) plate reader. […]
the absorbance readings were calculated via linear regression using GraphPad Prism (version 9). […]
residual activity of compound treated protein was determined in comparison to vehicle -treated […]

A further assay addresses NUDT1 (Homo sapiens, UniProt P36639). Put plainly: NUDT1 in vitro activity assay (malachite green). The settings on record: tested 1-500 µM; highest tested 500 µM. Further details: Full length NUDT1 gene synthesis; N-terminal His tag with thrombin site from pET28a(+) (NdeI/XhoI) (N, cleaved yes); made in house; host or cells: E. coli BL21 (DE3). The format is biochemical.
For a further assay, the target named is T2, IDH2 (Homo sapiens, UniProt P48735).
T2 construct: purchased active motif 31615
T2 sequence (P48735 40-452): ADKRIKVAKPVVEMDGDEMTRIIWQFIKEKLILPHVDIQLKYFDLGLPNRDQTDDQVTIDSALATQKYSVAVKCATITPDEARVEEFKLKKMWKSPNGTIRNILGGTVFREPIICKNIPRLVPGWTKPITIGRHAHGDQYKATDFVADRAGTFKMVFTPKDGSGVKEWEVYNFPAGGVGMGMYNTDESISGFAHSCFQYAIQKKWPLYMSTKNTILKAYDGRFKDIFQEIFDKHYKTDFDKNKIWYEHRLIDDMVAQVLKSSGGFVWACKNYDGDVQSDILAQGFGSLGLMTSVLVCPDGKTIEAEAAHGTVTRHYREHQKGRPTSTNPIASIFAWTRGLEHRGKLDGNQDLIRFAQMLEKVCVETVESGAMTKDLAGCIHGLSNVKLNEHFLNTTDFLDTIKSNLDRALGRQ
Put plainly: IDH2 in vitro activity assay (NADPH-coupled diaphorase/resazurin). Type of assay: biochemical. The settings on record: known inhibitor control.

Molecules are shown by their SMILES. Entries after “also recorded” stand apart in the source; their conditions may differ.

Experimental for IDH2: Recombinant human isocitrate dehydrogenase was purchased from active motif (Carlsbad, USA, Cat#
Activity assays were performed as previously described with minor
modifications.12 Briefly, the catalytic activity of converting is ocitrate to 2-oxogluterate (α-
ketoglutarate) converting the cofactor NADP+ to NADPH was measured by a NADPH-coupled assay.
The NADPH-dependent diaphorase (Sigma-Aldrich, St. Louis, USA, Cat# SLBT8928) converted resazurin
for activity read-out. To IDH2 (2 nM) in assay buffer (150 mM NaCl, 50 mM K2HPO4, 10 mM MnCl2, 10
mercaptoethanol (cend= 2.5 mM) for a total reaction volume of 79 µL per well (black 96-well plate, 4
replicates per condition). Conditions lacking IDH2 were added as control. After addition of 1 µL of
vehicle controls, the mixture was incubated at 25 °C for 1 h in the dark. Subsequently, the reaction was
initiated by addition of 20 µL of substrate mix (0.2 mM isocitrate, 60 µg/mL diaphorase, 200 µM
resazurin in assay buffer). Fluorescence was continuously measured using an Infinite M200 pro (Tecan,
the fluorescence increases were calculated via linear regression using GraphPad Prism (version 9).

For `C[C@H]1COc2c(N3CCN(C)CC3)c(F)cc3c(=O)c(C(=O)O)cn1c23` [Levofloxacin], the “regulation of ETC complex I and IV subunits” value in assay [1] is on record as “also observed using the same concentrations, although to a lesser extent”. Further, in assay [2], the “approximate apparent IC50 (metabolic activity, MTT)” value is reported as “well above the reported plasma concentrations”. At ADAL1, the “ADAL1 in vitro activity, effect” value is reported as “no significant effect; also recorded: no inhibitory effect was detected”. At NUDT1, the “NUDT1 in vitro activity, inhibition” value is listed as “only at the highest tested concentration (500 µM); also recorded: only significant at the highest concentration tested”.

As for `CC(C)(O)CNc1nc(Nc2ccnc(C(F)(F)F)c2)nc(-c2cccc(C(F)(F)F)n2)n1` [Enadisenib, Enasidenib], on IDH2, the “extent of IDH2 (wild-type) inhibition compared with the FQs” value is on record as “similar”.

These data come from PMC12036814 (Angewandte Chemie (International Ed. in English), 2025).
